Laboratory results published in ChEMBL document CHEMBL1145469, “Lysostaphin in treatment of neonatal Staphylococcus aureus infection” (Antimicrob Agents Chemother, 2007).
Converted amounts (≈) assume the structure as drawn.

Tests used:
[1] = system: Serum; assay: Drug level in Staphylococcus aureus infected Wistar rat pups serum at 15 mg/kg, ip; assay type: ADME, organism-based; design: dose 15 mg/kg, route intraperitoneal; settings: in vivo
[2] = system: Staphylococcus aureus; assay: Antibacterial activity against methicillin-sensitive Staphylococcus aureus; assay type: functional
[3] = Drug level in rat serum at 30 mg/kg, sc after 1 hr; assay type: ADME, organism-based; design: dose 30 mg/kg, route subcutaneous; settings: read-out: Drug uptake
[4] = Drug level in rat serum at 100 mg/kg, iv after 0.5 hr; assay type: ADME, organism-based; design: dose 100 mg/kg, route intravenous; settings: read-out: Drug uptake
[5] = Drug level in rat serum at 100 mg/kg, iv after 2 hrs; assay type: ADME, organism-based; design: dose 100 mg/kg, route intravenous; settings: read-out: Drug uptake
[6] = system: Serum; assay: Drug level in Staphylococcus aureus infected Wistar rat pups serum at 50 mg/kg, ip; assay type: ADME, organism-based; design: dose 50 mg/kg, route intraperitoneal; settings: in vivo
[7] = system: Rattus norvegicus; assay: Drug level in rat serum at 25 mg/kg, im; assay type: ADME, organism-based; design: dose 25 mg/kg, route intramuscular; settings: in vivo

**Q.** For `CN[C@H](CC(C)C)C(=O)N[C@H]1C(=O)N[C@@H](CC(N)=O)C(=O)N[C@H]2C(=O)N[C@H]3C(=O)N[C@H](C(=O)N[C@H](C(=O)O)c4cc(O)cc(O)c4-c4cc3ccc4O)[C@H](O)c3ccc(c(Cl)c3)Oc3cc2cc(c3O[C@@H]2O[C@H](CO)[C@@H](O)[C@H](O)[C@H]2O[C@H]2C[C@](C)(N)[C@H](O)[C@H](C)O2)Oc2ccc(cc2Cl)[C@H]1O` [VANCOMYCIN], which Drug uptake [1] is on record?
**A.** > 125 µg/mL

**Q.** What about the MBC [2] of the same molecule?
**A.** 0.25 µg/mL (≈ 0.173 µM)

**Q.** What about the concentration at 1 h [3] of the same molecule?
**A.** 36000 ng/mL

**Q.** And the concentration at 0.5 h [4]?
**A.** 180000 ng/mL

**Q.** What about the concentration at 2 h [5] of the same molecule?
**A.** 45000 ng/mL

**Q.** Which Drug uptake [6] does the source give for `Cc1onc(-c2ccccc2)c1C(=O)N[C@@H]1C(=O)N2[C@@H]1SC(C)(C)[C@@H]2C(=O)O` [OXACILLIN] here?
**A.** > 125 µg/mL

**Q.** What about the MBC [2] of the same molecule?
**A.** 0.25 µg/mL (≈ 0.623 µM)

**Q.** What about the MIC [2] of the same molecule?
**A.** 0.125 µg/mL (≈ 0.311 µM)

**Q.** With `CCOc1ccc2ccccc2c1C(=O)N[C@@H]1C(=O)N2[C@@H]1SC(C)(C)[C@@H]2C(=O)O` [NAFCILLIN] as the molecule, how does the Drug uptake [7] read?
**A.** 20.6 µg/mL
